Results reported in patent US9682976B2, “Protein kinase C inhibitors and uses thereof” (Rigel Pharmaceuticals, Inc., priority 2012, dated 2017).

Tested on: PKC mediated IL-2 production
Test: IL-2 ELISA, human primary T cell, anti CD3+CD28+
Format: cell-based
Conditions: human primary T cells stimulated with αCD3 and αCD28, 24 hours
How it was run: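 Human peripheral blood T cells, pre-expanded with αCD3/αCD28 and IL-2 and then washed free of IL-2, were pre-incubated with compound for 1 h at 37° C. They were then stimulated on plates coated with […] αCD3 and 5 μg/ml αCD28, or with 0.5 ng/ml PMA plus 0.1 uM ionomycin in the counter assay. IL-2 in supernatants was measured by ELISA after 24 h.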

For CC1(C)C[C@H](Nc2nc(Nc3ccc(N4CCN(C5COC5)CC4)c(C#N)c3)ncc2F)C[C@@H]2CCCN21 [Compound 116], which EC50 (Homo sapiens, T-cell, 24 h) is on record?
Its EC50 is 100 to 500 nM.

For COCCN1C(=O)C(C)(C)Oc2ccc(Nc3ncc(F)c(N[C@@H]4C[C@@H]5CCCN5C(C)(C)C4)n3)cc21 [Compound 319], which EC50 (Homo sapiens, T-cell, 24 h) is on record?
The EC50 was 1000 to 10000 nM.

For Cn1nnn(-c2cc(Nc3ncc(C#N)c(N[C@@H]4C[C@@H]5CCCN5C(C)(C)C4)n3)c(F)cc2C2CC2)c1=O (racemic) [Compound 66, 4-((R/S,S/R)-Octahydro-5,5-dimethylindolizin-7-ylamino)-2-(4-cyclopropyl-2-fluoro-5-(4,5-dihydro-4-methyl-5-oxotetrazol-yl)phenylamino) pyrimidine-5-carbonitrile], which EC50 (Homo sapiens, T-cell, 24 h) is on record?
The EC50 was less than 100 nM.

How did the EC50 (Homo sapiens, T-cell, 24 h) turn out when Cc1ccc(Nc2ncc(F)c(N[C@@H]3C[C@@H]4CCCN4C(C)(C)C3)n2)cc1-n1nnn(CCO)c1=O [Compound 275, 1-(5-(4-((7R,8aS)-octahydro-5,5-dimethylindolizin-7-ylamino)-5-fluoropyrimidin-2-ylamino)-2-methylphenyl)-4-(2-hydroxyethyl)-1H-tetrazol-5(4H)-one] was run?
The EC50 was 100 to 500 nM.

Which EC50 (Homo sapiens, T-cell, 24 h) does the source give for CC1(C)CC[C@H]2C[C@@H](Nc3nc(Nc4ccc(OC5COC5)c(OC(F)F)c4)ncc3F)CCN21 [Compound 298, N2-(3-(Difluoromethoxy)-4-(oxetan-3-yloxy)phenyl)-N4-((7S,8aS)-3,3-dimethyloctahydroindolizin-7-yl)-5-fluoropyrimidine-2,4-diamine] here?
Its EC50 is 100 to 500 nM.

How did the EC50 turn out when CC1(C)CC(Nc2nc(Nc3ccc(O[C@H]4CCOC4)c(C#N)c3)ncc2F)CC2CCCN21 (single isomer, unassigned) [Compound 62] was run?
Its EC50 is 100 to 500 nM.

COCCOc1ccc(Nc2ncc(F)c(N[C@@H]3C[C@@H]4CCCN4C(C)(C)C3)n2)cc1-n1cnnn1 [Compound 202, N4-((7R,8aS)-5,5-dimethyloctahydroindolizin-7-yl)-5-fluoro-N2-(4-(2-methoxyethoxy)-3-(1H-tetrazol-1-yl)phenyl)pyrimidine-2,4-diamine] was tested. Which EC50 (Homo sapiens, T-cell, 24 h) did it give?
The EC50 was less than 100 nM.

Which EC50 does the source give for CC1(C)Oc2ccc(Nc3ncc(F)c(N[C@@H]4C[C@H]5CCCN5C(C)(C)C4)n3)cc2-n2nnnc21 [Compound 2, N2-(4,4-dimethyl-4H-benzo[b]tetrazolo[1,5-d][1,4]oxazin-8-yl)-5-fluoro-N4-(octahydro-5,5-dimethylindolizin-7-amine)pyrimidine-2,4-diamine] here?
The EC50 was less than 100 nM.

CC1C(Nc2nc(Nc3cc(-n4nnn(C)c4=O)c(C4CC4)cc3F)ncc2F)CC(C)(C)N2CCCC12 (stereo not drawn) [Compound 69, 1-(5-(5-Fluoro-4-(octahydro-5,5,8-trimethylindolizin-7-ylamino)pyrimidin-2-ylamino)-2-cyclopropyl-4-fluorophenyl)-4-methyl-1H-tetrazol-5(4H)-one] was tested. Which EC50 (Homo sapiens, T-cell, 24 h) did it give?
The EC50 was 500 to 1000 nM.

For Cn1nnn(-c2cc(Nc3ncc(F)c(NC4CC5CCCN5C(C)(C)C4)n3)ccc2OC2COC2)c1=O (single isomer, unassigned) [Compound 39, 1-(5-(5-fluoro-4-(octahydro-5,5-dimethylindolizin-7-ylamino)pyrimidin-2-ylamino)-2-(oxetan-3-yloxy)phenyl)-4-methyl-1H-tetrazol-5(4H)-one], which EC50 (Homo sapiens, T-cell, 24 h) is on record?
The EC50 was 100 to 500 nM.

Which EC50 (Homo sapiens, T-cell, 24 h) does the source give for CC1(C)CC[C@H]2C[C@@H](Nc3nc(Nc4ccc(OC5CC(O)C5)c(OC(F)F)c4)ncc3F)CCN21 (stereo partly drawn) [Compound 306, 3-(2-(Difluoromethoxy)-4-((4-(((7S,8aS)-3,3-dimethyloctahydroindolizin-7-yl)amino)-5-fluoropyrimidin-2-yl)amino)phenoxy)cyclobutan-1-ol] here?
Its EC50 is 100 to 500 nM.

How did the EC50 (Homo sapiens, T-cell, 24 h) turn out when Cc1ccc(Nc2ncc(F)c(N[C@@H]3C[C@@H]4CCCN4C(C)(C)C3)n2)cc1-n1nnn(CC(C)(C)O)c1=O [Compound 289, 1-(5-(4-((7R,8aS)-octahydro-5,5-dimethylindolizin-7-ylamino)-5-fluoropyrimidin-2-ylamino)-2-methylphenyl)-4-(2-hydroxy-2-methylpropyl)-1H-tetrazol-5(4H)-one] was run?
Its EC50 is less than 100 nM.

With C[C@H](CO)COc1cc(F)c(Nc2ncc(F)c(N[C@@H]3C[C@@H]4CCCN4C(C)(C)C3)n2)cc1-n1nnn(C)c1=O [Compound 222, 1-(5-((4-(((7R,8aS)-5,5-dimethyloctahydroindolizin-7-yl)amino)-5-fluoropyrimidin-2-yl)amino)-4-fluoro-2-((R)-3-hydroxy-2-methylpropoxy)phenyl)-4-methyl-1,4-dihydro-5H-tetrazol-5-one] as the compound, how does the EC50 (Homo sapiens, T-cell, 24 h) read?
Its EC50 is 100 to 500 nM.

With Cn1nnn(-c2cc(Nc3ncc(F)c(N[C@@H]4C[C@@H]5CCCN5C(C)(C)C4)n3)c(F)cc2OCC(O)CO)c1=O (stereo partly drawn) [Compound 199, 1-(2-(2,3-dihydroxypropoxy)-5-((4-(((7R,8aS)-5,5-dimethyloctahydroindolizin-7-yl)amino)-5-fluoropyrimidin-2-yl)amino)-4-fluorophenyl)-4-methyl-1,4-dihydro-5H-tetrazol-5-one] as the compound, how does the EC50 (Homo sapiens, T-cell, 24 h) read?
The EC50 was 500 to 1000 nM.

CC1(C)C[C@H](Nc2nc(Nc3cc(-n4nnnc4C4CC4)ccc3F)ncc2Cl)C[C@@H]2CCCN21 [Compound 164, 5-chloro-N2-(5-(5-cyclopropyl-1H-tetrazol-1-yl)-2-fluorophenyl)-N4-((7R,8aS)-5,5-dimethyloctahydroindolizin-7-yl)pyrimidine-2,4-diamine] was tested. Which EC50 (Homo sapiens, T-cell, 24 h) did it give?
The EC50 was less than 100 nM.

Which EC50 (Homo sapiens, T-cell, 24 h) does the source give for Cn1nnn(-c2cc(Nc3ncc(F)c(N[C@@H]4C[C@@H]5CCCN5C(C)(C)C4)n3)c(F)cc2OCC(N)=O)c1=O [Compound 322, 2-(4-(4-((7R,8aS)-octahydro-5,5-dimethylindolizin-7-ylamino)-5-fluoropyrimidin-2-ylamino)-5-fluoro-2-(4,5-dihydro-4-methyl-5-oxotetrazol-1-yl)phenoxy)acetamide] here?
Its EC50 is 100 to 500 nM.

CC1(C)C[C@H](Nc2nc(Nc3cc(C#N)c(C4CC4)cc3F)ncc2Cl)C[C@@H]2CCCN21 [Compound 181, 5-((5-chloro-4-(((7R,8aS)-5,5-dimethyloctahydroindolizin-7-yl)amino)pyrimidin-2-yl)amino)-2-cyclopropyl-4-fluorobenzonitrile] was tested. Which EC50 (Homo sapiens, T-cell, 24 h) did it give?
Its EC50 is 100 to 500 nM.

With Cn1nnn(-c2cc(Nc3ncc(F)c(N[C@@H]4C[C@@H]5CCCN5C(C)(C)C4)n3)c(F)cc2OC[C@H](O)CO)c1=O [Compound 188, 1-(2-((R)-2,3-dihydroxypropoxy)-5-((4-(((7R,8aS)-5,5-dimethyloctahydroindolizin-7-yl)amino)-5-fluoropyrimidin-2-yl)amino)-4-fluorophenyl)-4-methyl-1,4-dihydro-5H-tetrazol-5-one] as the compound, how does the EC50 (Homo sapiens, T-cell, 24 h) read?
The EC50 was 500 to 1000 nM.

CC1(C)CC(Nc2nc(Nc3ccc(O[C@H]4CCOC4)c(C#N)c3)ncc2F)CC2CCCN21 (mixture of isomers) [Compound 60, 2-((S)-tetrahydrofuran-3-yloxy)-5-(5-fluoro-4-(octahydro-5,5-dimethylindolizin-7-ylamino)pyrimidin-2-ylamino)benzonitrile] was tested. Which EC50 (Homo sapiens, T-cell, 24 h) did it give?
Its EC50 is 100 to 500 nM.

For CC1(C)CC(Nc2nc(Nc3ccc(O[C@H]4CCOC4)c(C#N)c3)ncc2F)CC2CCCN21 (single isomer, unassigned) [Compound 61], which EC50 is on record?
Its EC50 is 500 to 1000 nM.

How did the EC50 (Homo sapiens, T-cell, 24 h) turn out when COc1cc(Nc2ncc(Cl)c(N[C@@H]3C[C@@H]4CCCN4C(C)(C)C3)n2)cc(OC)c1OC [Compound 183, 5-chloro-N4-((7R,8aS)-5,5-dimethyloctahydroindolizin-7-yl)-N2-(3,4,5-trimethoxyphenyl)pyrimidine-2,4-diamine] was run?
The EC50 was 1000 to 10000 nM.

Which EC50 (Homo sapiens, T-cell, 24 h) does the source give for CC1(C)CC[C@H]2C[C@@H](Nc3nc(Nc4ccc(N5CCOCC5)c(OC(F)F)c4)ncc3F)CCN21 [Compound 297] here?
Its EC50 is 100 to 500 nM.

CC1(C)CC(Nc2nc(Nc3ccc(OC4COC4)c(C#N)c3)ncc2F)CC2CCCN21 (stereo not drawn) [Compound 63, 5-(5-Fluoro-4-(octahydro-5,5-dimethylindolizin-7-ylamino)pyrimidin-2-ylamino)-2-(oxetan-3-yloxy)benzonitrile] was tested. Which EC50 (Homo sapiens, T-cell, 24 h) did it give?
Its EC50 is 100 to 500 nM.

Cn1nnn(-c2cc(Nc3ncc(F)c(N[C@@H]4C[C@@H]5CCCN5C(C)(C)C4)n3)c(F)cc2OCCN)c1=O [Compound 228, 1-(2-(2-aminoethoxy)-5-((4-(((7R,8aS)-5,5-dimethyloctahydroindolizin-7-yl)amino)-5-fluoropyrimidin-2-yl)amino)-4-fluorophenyl)-4-methyl-1,4-dihydro-5H-tetrazol-5-one] was tested. Which EC50 did it give?
The EC50 was 100 to 500 nM.

CC1C(Nc2nc(Nc3cc(N(C)C(=O)N(C)C)c(C4CC4)cc3F)ncc2F)CC(C)(C)N2CCCC12 (stereo not drawn) [Compound 74] was tested. Which EC50 did it give?
The EC50 was 100 to 500 nM.

How did the EC50 (Homo sapiens, T-cell, 24 h) turn out when CC1(C)C[C@H](Nc2nc(Nc3ccc(OCC4COCCO4)c(C#N)c3)ncc2F)C[C@@H]2CCCN21 (stereo partly drawn) [Compound 177, 2-((1,4-dioxan-2-yl)methoxy)-5-(4-((7R,8aS)-5,5-dimethyloctahydroindolizin-7-ylamino)-5-fluoropyrimidin-2-ylamino)benzonitrile] was run?
Its EC50 is 100 to 500 nM.

With CC1(C)Oc2ccc(Nc3ncc(F)c(N[C@@H]4C[C@@H]5CCCN5C(C)(C)C4)n3)cc2-n2nnnc21 [Compound 136, N2-(4,4-dimethyl-4H-benzo[b]tetrazolo[1,5-d][1,4]oxazin-8-yl)-N4-((7R,8aS)-5,5-dimethyloctahydroindolizin-7-yl)-5-fluoropyrimidine-2,4-diamine] as the compound, how does the EC50 (Homo sapiens, T-cell, 24 h) read?
The EC50 was less than 100 nM.

How did the EC50 (Homo sapiens, T-cell, 24 h) turn out when CC1(C)C[C@H](Nc2nc(Nc3ccc(F)c(-n4nnnc4C4CC4)c3)ncc2Cl)C[C@@H]2CCCN21 [Compound 163, 5-chloro-N2-(3-(5-cyclopropyl-1H-tetrazol-1-yl)-4-fluorophenyl)-N4-((7R,8aS)-5,5-dimethyloctahydroindolizin-7-yl)pyrimidine-2,4-diamine] was run?
The EC50 was less than 100 nM.

CC1(C)C[C@H](Nc2nc(Nc3cccc(-n4nnn(C5COC5)c4=O)c3)ncc2F)C[C@@H]2CCCN21 [Compound 265, 1-(3-(4-((7R,8aS)-octahydro-5,5-dimethylindolizin-7-ylamino)-5-fluoropyrimidin-2-ylamino)phenyl)-4-(oxetan-3-yl)-1H-tetrazol-5(4H)-one] was tested. Which EC50 (Homo sapiens, T-cell, 24 h) did it give?
Its EC50 is 100 to 500 nM.

Which EC50 (Homo sapiens, T-cell, 24 h) does the source give for Cn1nnn(-c2cc(Nc3ncc(F)c(N[C@@H]4C[C@@H]5C[C@@H](O)CN5C(C)(C)C4)n3)c(F)cc2C2CC2)c1=O [Compound 68, 1-(5-(4-((2R,7R,8aR)-2-hydroxy-octahydro-5,5-dimethylindolizin-7-ylamino)-5-fluoropyrimidin-2-ylamino)-2-cyclopropyl-4-fluorophenyl)-4-methyl-1H-tetrazol-5(4H)-one] here?
The EC50 was 100 to 500 nM.
